The text below walks through data of the OPERA property sets (Mansouri et al. 2018).

Molecules are shown by their SMILES. Where a SMILES comes first, the peptide text is derived from it.

Broadly, the logP is a log measure of how a compound divides between an organic and an aqueous phase. A lower logP goes with a more hydrophilic compound. `CCC(C)C(NC(=O)C(NC(=O)C(N)CC(C)C)C(C)O)C(=O)O` (stereo not drawn) (H-Leu-Thr-Ile-OH; configuration not given here) registered a logP of -2.3. The same measure for `O=c1cc(CSc2ccccn2)occ1O`: 1.14; for `COc1cnc(C2=NC(C)(C(C)C)C(=O)N2)c(C(=O)O)c1` (configuration not stated): 0.61; for `COc1ccc(-c2cn3cccnc3n2)c(OC)c1`: 1.94. The value for `CCC(C)C(N)C(=O)NC(C(=O)NC(C(=O)NC(C(=O)NCC(=O)O)C(C)CC)C(C)CC)C(C)CC` (configuration not stated) (H-IIIIG-OH; configuration not given here) was -0.97; that for `CCCCCOCCCNc1ncnc2c1ncn2C1OC(CO)C(O)C1O` (configuration not stated) was 1.82; that for `CNc1nccn2c(Cc3ccccc3F)nnc12` was 1.56.

`CN1COCc2c1ccc1cc3ccc4c(c3nc21)COC(=O)N4`: the logP worked out at 1.7.

Compound `CC(C)NC(=S)NS(=O)(=O)c1cnccc1NC1CCCCCC1` came in with a logP of 3.86.

Regarding `CCCC(=O)c1ccncc1`, the logP was determined as 1.4. The same measure for `CCc1ccc(OCC2CN=C(N)O2)cc1` (configuration not stated): 2.27; for `COc1ccccc1CNC1CCCNC1c1ccccc1` (configuration not stated): 3.1; for `Cn1c(N)nc2ncc(-c3ccccc3)cc21`: 2.23. The same measure for `Cn1ccnc1CC1COc2ccccc2O1` (configuration not stated): 1.93; for `O=c1[nH]c2cc(Cl)ccc2c(O)c1-c1cccc(Cc2ccc(CCN3CCOCC3)cc2)c1`: 5.2; for `CCOC(=O)C(C)(Cc1ccccc1)S(=O)(=O)c1ccc([N+](=O)[O-])cc1` (configuration not stated): 3.4. The same measure for `O=C1C=C(N2CCCCC2)C(=O)N1c1ccc(Cl)cc1`: 3.4; for `CC(C)N(CC1CN=C(N)O1)C(C)C` (configuration not stated): 0.98; for `O=C(O)CCCCCON=C(c1cccc(C(F)(F)F)c1)c1cnccn1`: 3.52. `CC=C(C)C(=O)OCC1CCCC2(C)CCC(C(C)(C)O)CC12` (configuration not stated) came in with a logP of 5.27. The value for `C=CC(=O)OCCOCCO` was -0.3; that for `OCCN1CCN(CCCOn2nnc3ccccc32)CC1` was 0.43. The same measure for `CC(C)CC(NC(=O)C(NC(=O)C1CCCN1C(=O)C(N)C(C)C)C(C)C)C(=O)O` (configuration not stated) (H-VPVL-OH; configuration not given here): -1.91; for `COC(=O)C(C)NP(=O)(OCC1C=CC(n2cc(C)c(=O)[nH]c2=O)O1)Oc1ccc(Cl)cc1` (configuration not stated): 1.43. As for `CCCCCCNc1[nH]cnc2ncnc1-2`, the logP amounted to 3.16. The same measure for `CC1CC(=O)NN=C1c1ccc(-n2cnc3c2CCCC3)cc1` (configuration not stated): 2.52; for `CCc1cccc2nc(N)nc(N)c12`: 1.69; for `C=CCNC(=O)N(CCCCC(NC(C)=O)C(=O)NCc1ccccc1)Cc1ccccc1` (configuration not stated): 1.98. The compound `C#CCC(O)(c1ccc(C(C)C)cc1)c1cccnc1` (configuration not stated) returned a logP of 2.16. The compound `Clc1ccc(-c2cnn(-c3ccccn3)c2)cc1` had a logP of 4.3. The value for `CCNC1CCc2c(OC)cccc2C1C` (configuration not stated) was 2.67; that for `CNC1CCc2c(OC)cccc2C1C` (configuration not stated) was 2.42; that for `O=C1N=C(N2CCOCC2)CN1Cc1ccc(I)cc1` was 1.7.

As to `O=C(Nc1ccccc1)c1ccccc1I`, the logP amounted to 2.85. The value for `Cc1c2ccoc2cc2oc(=O)ccc12` was 2.33; that for `[O-][n+]1ccc(-c2ccccc2)cc1` was 0.93. The same measure for `c1ccc(CCCCNc2[nH]cnc3ncnc2-3)cc1`: 3.29. The same measure for `CC1CCC(NC(=O)N2C(=O)N(C)CC2O)CC1` (configuration not stated): 2.41; for `Cn1c2c(c3cc([N+](=O)[O-])ccc31)CCNC2`: 2.07. Turning to `CCN(CCO)CCCOc1cc2ncnc(Nc3cc(CC(=O)Nc4cccc(F)c4)[nH]n3)c2cc1OC`, the logP is 3.7. The same measure for `Cc1ccc(CO)c(C=NNC(=O)c2cccs2)c1O`: 3.03. The same measure for `O=C1C=C(N2CCCCC2)C(=O)N1c1ccc(F)cc1`: 2.6. The same measure for `COc1ccc(O)c(C2=NC(C)(C(=O)O)CS2)c1` (configuration not stated): 1.8; for `O=C(Cn1cnc([N+](=O)[O-])n1)NCCCO`: -1.27; for `O=C(c1c(O)c2ccc(Cl)cc2[nH]c1=O)C1CC1`: 2.35. As for `O=C(NC1CCCCCCC1)NS(=O)(=O)c1cnccc1NC1CCCCCC1`, the logP amounted to 5.34. The same measure for `O=C1c2ccc(O)cc2OCN1CCO[N+](=O)[O-]`: 1.63. The same measure for `CCOC(=O)C(C)c1ccc2cc(OC)ccc2c1` (configuration not stated): 3.51; for `OCC1OC(n2cnc3c(NCCCc4ccccc4)ncnc32)C(O)C1O` (configuration not stated): 1.92. The same measure for `CNC(=S)NN=C(C)CSCC(C)=NNC(=S)NC`: 1.38; for `CN(C)CCOC(=O)c1ccc(C(F)(F)F)cc1`: 2.88; for `O=[N+]([O-])c1cn(Cc2ccccc2)cn1`: 1.36. The compound `COc1ccccc1-n1nnnc1N` yielded a logP of 0.56. The same measure for `c1nc2nc[nH]c(N3CCCCCC3)c-2n1`: 2.53; for `CC(C)(O)C1CCC2(C)CCCC(O)C2C1` (configuration not stated): 2.68. The value for `Nc1nc(N)c2c(OCc3ccccc3)cccc2n1` was 2.82. The value for `CC(C)CC(NC(=O)C1CCCN1)C(=O)O` (stereo not drawn) (H-Pro-Leu-OH; configuration not given here) was -2.41. In turn, `CC(C)CCC(=O)CC1c2ccccc2C(=O)N1c1ccc2ccc(Cl)nc2n1` (configuration not stated) had a logP of 4.8. The same measure for `CC(=O)Nc1ccc(/C=C/c2n[nH]c(=O)cc2C)cc1`: 1.27; for `CCCCc1c(O)c(=O)cc(C)n1C`: 0.9. The value for `COC(=O)C(C)S(=O)(=O)c1ccc([N+](=O)[O-])cc1` (configuration not stated) was 1.06. With `COC(=O)c1cc2cccc3ccc4cccc1c4c32`, the logP turned out to be 4.73. Turning to `CC(=O)N(O)CCCCCNC(=O)CCC(=O)N(O)CCCCCNC(=O)CCC(=O)N(O)CCCCCNC=O`, the logP was -0.33.

In turn, `CC(C)(C)c1ccc(C(O)CCCN2CCC(C(O)c3ccccc3)CC2)cc1` (configuration not stated) had a logP of 4.06.

For the compound `CCCNC(=O)CCC(=O)NCc1c(O)c(=O)cc(C)n1C`, the logP was -0.7. The same measure for `CCOC(=O)N1COCc2c1ccc1cc3ccc4c(c3nc21)COCN4C(=O)OCC`: 2.5.

`CN1CCc2cccc(Cl)c2CC1` registered a logP of 2.92. As to `C=CCN(N=O)C(=O)N(CCCCC(NC(C)=O)C(=O)NCc1ccccc1)Cc1ccccc1` (configuration not stated), the logP is 2.7.

`CC(C)CC(NC(=O)C(N)C(C)C)C(=O)O` (stereo not drawn) (H-Val-Leu-OH; configuration not given here) displayed a logP of -2.07.

Turning to `CC1(C)Oc2ccc(C#N)cc2C(N2CCCC2=O)C1O` (configuration not stated), the logP turned out to be 2.32. The value for `N#CCCOC1Cc2c(O)cc(O)cc2OC1c1ccc(O)c(O)c1` (configuration not stated) was 0.96; that for `CCC(=O)[C@@]1(C)CC[C@H]2[C@@H]3CCC4=CC(=O)CCC4=C3CC[C@@]21C` was 4.04; that for `OCCCCCCCCCNc1[nH]cnc2ncnc1-2` was 2.75. The same measure for `CCCC(=O)NCCCCCN(O)C(=O)CCC(=O)NCCCCCN(O)C(=O)CCC(=O)NCCCCCN(O)C(C)=O`: 0.42; for `COC(=O)C(C)NP(=O)(OCC1C=CC(n2cc(C)c(=O)[nH]c2=O)O1)Oc1ccc(OC(F)(F)F)cc1` (configuration not stated): 1.86; for `COC(=O)Nc1c(C(C)C)cccc1C(C)C`: 2.2. The same measure for `CNCCC=Cc1cccnc1`: 1.13; for `CCOC(=O)C1=C(C)NC(C)=C(C(=O)OC)C1c1cccc2c1OCCO2` (configuration not stated): 3.57; for `CCCCC(C)N=C=S` (configuration not stated): 3.94. As to `CCc1cccc(C)c1NC(=O)OC`, the logP amounted to 1.99.

`CCCOc1cccc(-c2c[nH]c(SCCc3c[nH]cn3)n2)c1` had a lipophilicity (logP) of 3.7.

For `CCCCCNc1ncnc2c1ncn2C1OC(CO)C(O)C1O` (configuration not stated), the logP amounted to 1.67. The same measure for `Cc1ccc(OCC2CN=C(N)O2)c(C)c1` (configuration not stated): 2.23. The value for `CON(C)C(=O)c1cn2c(C)c(C)nc2c2c1CCC(c1ccccc1)O2` (configuration not stated) was 3.6. The value for `COc1ccc(F)cc1CNC1CCCNC1c1ccccc1` (configuration not stated) was 3.5. In turn, `CCCc1nc(NCC(=O)N(C)C)nc(N2CCOCC2)n1` returned a logP of 0.67. `CON=C(C(=O)NC1C(=O)N2C(C(C)OC(C)=O)=CCSC12)c1csc(N)n1` (configuration not stated) registered a logP of 0.46. The value for `CC1NCCc2c1[nH]c1ccccc21` (configuration not stated) was 2.06. The value for `CC(NC(=O)C(C)NC(=O)C(N)C(C)C)C(=O)NC(Cc1ccccc1)C(=O)O` (configuration not stated) (H-VAAF-OH; configuration not given here) was -1.91; that for `O=C(Nc1ccccc1C(=O)O)c1ccccc1O` was 3.94; that for `O=C(O)CCC(=O)OC1Cc2c(O)cc(O)cc2OC1c1ccc(O)c(O)c1` (configuration not stated) was 1.41. `CCCCNC(C)CO` (configuration not stated) gave a logP of 1.19.

The compound `Brc1ccc2ccc3ccc(Br)c4ccc1c2c34` returned a logP of 6.73. As for `O=C1N=C(N2CCOCC2)CN1Cc1ccccc1Cl`, the logP is 1. The same measure for `ClCC1(CCl)C2CC(Cl)(Cl)C1(CCl)C(Cl)C2Cl` (configuration not stated): 5.23; for `COc1cccc(C2CCCCC2=O)c1` (configuration not stated): 2.42; for `Cc1c(C(=O)O)cccc1[N+](=O)[O-]`: 2.16. The same measure for `CC(C)CC(NC(=O)C(CC(C)C)NC(=O)C(CC(C)C)NC(=O)C1CCCN1)C(=O)O` (configuration not stated) (H-PLLL-OH; configuration not given here): -1.06. The same measure for `CC(=O)OC1C(C)OC(n2cc(F)c(=O)[nH]c2=O)C1OC(C)=O` (configuration not stated): -0.02; for `CCOP(=O)(OCC)C(C)(C)[N+]([O-])=Cc1ccc(Cl)cc1`: 2.29.

On to `OCCCCCCCNc1ncnc2c1ncn2C1OC(CO)C(O)C1O` (configuration not stated), for which the logP came out at 0.68.

In the case of `CC(=O)NC1=C(Cl)C(=O)c2ccccc2C1=O`, the logP was 1.42. The same measure for `COC1(OC)C(N2CCOCC2)=NC(=O)N1c1ccc(Cl)cc1`: 1.7.

Regarding `Cc1cc(=O)c(O)c(CNC(=O)C(C)C)n1C`, the logP is -0.35. `COC(=O)C(C)NP(=O)(OCC1C=CC(n2cc(C)c(=O)[nH]c2=O)O1)Oc1cccc(Cl)c1` (configuration not stated): the log partition coefficient (logP) was found to be 1.42. The same measure for `O=C1CCC(c2ccc(-n3ccnc3)cc2)=NN1`: 0.96. The value for `COc1cc(OC)nc(Oc2cccc(Cl)c2C(=O)O)n1` was 2.23.
